Test results as given in patent US20240010640A1, “ANTAGONISTS OF THE MUSCARINIC ACETYLCHOLINE RECEPTOR M4” (Vanderbilt University, priority 2020, published 2024).

Biological target: T1, Human M4 (Homo sapiens, UniProt P08173)
T1 construct: Human or rat M4 cDNA, along with the chimeric G protein Gqi5, were transfected into Chinese hamster ovary (CHO-K1) cells; expressed in transfected cells; host or cells: CHO-K1 (Chinese hamster ovary, ATCC), stably expressing M4 and Gqi5
T1 sequence (P08173 1-479): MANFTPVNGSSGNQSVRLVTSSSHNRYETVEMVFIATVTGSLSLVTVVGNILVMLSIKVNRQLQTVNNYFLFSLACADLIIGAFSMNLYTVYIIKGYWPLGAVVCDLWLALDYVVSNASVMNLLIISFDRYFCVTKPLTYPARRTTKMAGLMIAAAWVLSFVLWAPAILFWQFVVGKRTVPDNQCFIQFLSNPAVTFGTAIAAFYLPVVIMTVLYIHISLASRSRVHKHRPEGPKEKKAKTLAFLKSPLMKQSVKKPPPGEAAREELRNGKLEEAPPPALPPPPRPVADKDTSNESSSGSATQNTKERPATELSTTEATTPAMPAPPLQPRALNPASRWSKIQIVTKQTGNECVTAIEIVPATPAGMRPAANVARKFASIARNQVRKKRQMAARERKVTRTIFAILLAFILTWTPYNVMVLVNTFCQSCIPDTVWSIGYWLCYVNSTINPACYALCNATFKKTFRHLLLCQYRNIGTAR
Assay: mAChR M4 cell-based functional assay (calcium flux, antagonist mode)
Conditions: for IC50: Human M4/Gqi5 CHO-K1 cells, decrease of acetylcholine response; for Emin (% ACh maximum at 30 μM): Human M4
Protocol: Human or rat M4 cDNA, along with the chimeric G protein Gqi5, were transfected into Chinese hamster ovary (CHO-K1) cells purchased from the American Type Culture Collection using Lipofectamine2000. M4/Gqi5/CHO cells were grown in Ham's F-12 medium containing 10% heat-inactivated fetal bovine serum (FBS), 20 mM HEPES, 500 μg/mL G418 sulfate, and 200 μg/mL Hygromycin B.
For high throughput measurement of agonist-evoked increases in intracellular calcium, CHO-K1 cells stably expressing muscarinic receptors were plated in growth medium lacking G418 and hygromycin at 15,000 cells/20 μL/well in Greiner 384-well black-walled, tissue culture (TC)-treated, clear-bottom plates (VWR). Cells were incubated overnight at 37° C. and 5% CO2. The next day, cells were washed using an ELX 405 (BioTek) with assay buffer; the final volume was then aspirated to 20 μL. Next, 20 μL of a 2.3 μM stock of Fluo-4/acetoxymethyl ester (Invitrogen, Carlsbad, CA), prepared as a 2.3 mM stock in DMSO and mixed in a 1:1 ratio with 10% (w/v) Pluronic F-127 and diluted in assay buffer, was added to the wells and the cell plates were incubated for 50 min at 37° C. and 5% CO2. Dye was removed by washing with the ELX 405 and the final volume was aspirated to 20 μL. Compound master plates were formatted in a 10 point concentration-response curve (CRC) format (1:3 dilutions) in 100% DMSO with a starting concentration of 10 or 1 mM using a BRAVO liquid handler (Agilent). Test compound CRCs were then transferred to daughter plates (240 nL) using the Echo acoustic plate reformatter (Labcyte, Sunnyvale, CA) and then diluted into assay buffer (40 μL) to a 2× stock using a Thermo Fisher Combi (Thermo Fisher Scientific, Waltham, MA).
Calcium flux was measured using the Functional Drug Screening System (FDSS) 6000 or 7000 (Hamamatsu Corporation, Tokyo, Japan) as an increase in the fluorescent static ratio. Compounds were applied to cells (20 μL, 2×) using the automated system of the FDSS at 2 seconds into the protocol and the data were collected at 1 Hz. At 143 s, 10 μL of an EC20 concentration of the muscarinic receptor agonist acetylcholine was added (5×), followed by the addition of 12 μL of an […] concentration of acetylcholine at the 268 s time point (5×). Agonist activity was analyzed as a concentration-dependent increase in calcium mobilization upon compound addition. Positive allosteric modulator activity was analyzed as a concentration-dependent increase in the EC20 acetylcholine response. Antagonist activity was analyzed as a concentration-dependent decrease in the EC80 acetylcholine response; for the purposes of the tables herein, an IC50 (inhibitory concentration 50) was calculated as a concentration-dependent decrease of the response elicited by an […] concentration of acetylcholine. Concentration-response curves were generated using a four-parameter logistical equation in XLFit curve fitting software (IDBS, Bridgewater, NJ) for Excel (Microsoft, Redmond, WA) or Prism (GraphPad Software, Inc., San Diego, CA) or the Dotmatics software platform (Dotmatics, Bishop's Stortford, UK).
Compounds were synthesized as described above. Activity (IC50 and Emin) was determined in the mAChR M4 cell-based functional assay as described above and the data are shown in Table 1.

Structure (SMILES) | IC50 [µM] | Emin (% ACh maximum at 30 μM) [%]
[2H]C([2H])(C1CCOCC1)N1C[C@H]2C[C@H](Nc3ccc(-c4ccn(C)c(=O)c4)nn3)C[C@H]2C1 [A1, 1-methyl-4-(6-(((3aR,5s,6aS)-2-((tetrahydro-2H-pyran-4-yl)methyl-d2)octahydrocyclopenta[c]pyrrol-5-yl)amino)pyridazin-3-yl)pyridin-2(1H)-one] | 0.081 | 5
[2H]C([2H])(C1CCOCC1)N1C[C@H]2C[C@H](Nc3ccc(-c4ccc(=O)n(C)c4)nn3)C[C@H]2C1 [A2, 1-methyl-5-(6-(((3aR,5s,6aS)-2-((tetrahydro-2H-pyran-4-yl)methyl-d2)octahydrocyclopenta[c]pyrrol-5-yl)amino)pyridazin-3-yl)pyridin-2(1H)-one] | 0.034 | 4
[2H]C([2H])(C1CCOCC1)N1C[C@H]2C[C@H](Nc3ccc(-c4cccn(C)c4=O)nn3)C[C@H]2C1 [A3, 1-methyl-3-(6-(((3aR,5s,6aS)-2-((tetrahydro-2H-pyran-4-yl)methyl-d2)octahydrocyclopenta[c]pyrrol-5-yl)amino)pyridazin-3-yl)pyridin-2(1H)-one] | 0.0059 | 4
Cn1cccc(-c2ccc(N[C@H]3C[C@@H]4CN(CC5CCOCC5)C[C@@H]4C3)nn2)c1=O [A4, 1-methyl-3-(6-(((3aR,5s,6aS)-2-((tetrahydro-2H-pyran-4-yl)methyl)octahydrocyclopenta[c]pyrrol-5-yl)amino)pyridazin-3-yl)pyridin-2(1H)-one] | 0.0155 | 5
O=c1ccc(-c2ccc(N[C@H]3C[C@@H]4CN(CC5CCOCC5)C[C@@H]4C3)nn2)cn1C(F)F [A5, 1-(difluoromethyl)-5-(6-(((3aR,5s,6aS)-2-((tetrahydro-2H-pyran-4-yl)methyl)octahydrocyclopenta[c]pyrrol-5-yl)amino)pyridazin-3-yl)pyridin-2(1H)-one] | 0.0038 | 4
O=c1cc(-c2ccc(N[C@H]3C[C@@H]4CN(CC5CCOCC5)C[C@@H]4C3)nn2)ccn1C(F)F [A6, 1-(difluoromethyl)-4-(6-(((3aR,5s,6aS)-2-((tetrahydro-2H-pyran-4-yl)methyl)octahydrocyclopenta[c]pyrrol-5-yl)amino)pyridazin-3-yl)pyridin-2(1H)-one] | 0.0059 | 9
Cn1cc(-c2ccc(N[C@H]3C[C@@H]4CN(CC5CCOCC5)C[C@@H]4C3)nn2)cnc1=O [A7, 1-methyl-5-(6-(((3aR,5s,6aS)-2-((tetrahydro-2H-pyran-4-yl)methyl)octahydrocyclopenta[c]pyrrol-5-yl)amino)pyridazin-3-yl)pyrimidin-2(1H)-one] | 0.514 | 7
Cc1cc(-c2ccc(N[C@H]3C[C@@H]4CN(CC5CCOCC5)C[C@@H]4C3)nn2)c(=O)[nH]n1 [A8, 6′-methyl-6-(((3aR,5s,6aS)-2-((tetrahydro-2H-pyran-4-yl)methyl)octahydrocyclopenta[c]pyrrol-5-yl)amino)-[3,4′-bipyridazin]-3′(2′H)-one] | 0.136 | 8
Cn1cc(C(F)(F)F)cc(-c2ccc(N[C@H]3C[C@@H]4CN(CC5CCOCC5)C[C@@H]4C3)nn2)c1=O [A9, 1-methyl-3-(6-(((3aR,5s,6aS)-2-((tetrahydro-2H-pyran-4-yl)methyl)octahydrocyclopenta[c]pyrrol-5-yl)amino)pyridazin-3-yl)-5-(trifluoromethyl)pyridin-2(1H)-one] | 0.0274 | 4
Cn1cc(-c2ccc(N[C@H]3C[C@@H]4CN(CC5CCCOC5)C[C@@H]4C3)nn2)ccc1=O (stereo partly drawn) [A10, 1-methyl-5-(6-(((3aR,5s,6aS)-2-((tetrahydro-2H-pyran-3-yl)methyl)octahydrocyclopenta[c]pyrrol-5-yl)amino)pyridazin-3-yl)pyridin-2(1H)-one] | 0.129 | 4
Cn1cc(-c2ccc(N[C@H]3C[C@@H]4CN(CC5CCCCC5)C[C@@H]4C3)nn2)ccc1=O [A11, 5-(6-(((3aR,5s,6aS)-2-(cyclohexylmethyl)octahydrocyclopenta[c]pyrrol-5-yl)amino)pyridazin-3-yl)-1-methylpyridin-2(1H)-one] | 0.0035 | 3
Cn1cc(-c2ccc(N[C@H]3C[C@@H]4CN(Cc5ccccn5)C[C@@H]4C3)nn2)ccc1=O [A12, 1-methyl-5-(6-(((3aR,5s,6aS)-2-(pyridin-2-ylmethyl)octahydrocyclopenta[c]pyrrol-5-yl)amino)pyridazin-3-yl)pyridin-2(1H)-one] | 0.762 | 9
Cn1cc(-c2ccc(N[C@H]3C[C@@H]4CN(CCC(C)(C)C)C[C@@H]4C3)nn2)ccc1=O [A13, 5-(6-(((3aR,5s,6aS)-2-(3,3-dimethylbutyl)octahydrocyclopenta[c]pyrrol-5-yl)amino)pyridazin-3-yl)-1-methylpyridin-2(1H)-one] | 0.001 | 3
[2H]C([2H])(C1CCOCC1)N1C[C@H]2C[C@H](Nc3ccc(-c4ccc(=O)n(CC5CC5)c4)nn3)C[C@H]2C1 [A14, 1-(cyclopropylmethyl)-5-(6-(((3aR,5s,6aS)-2-((tetrahydro-2H-pyran-4-yl)methyl-d2)octahydrocyclopenta[c]pyrrol-5-yl)amino)pyridazin-3-yl)pyridin-2(1H)-one] | 0.0288 | 3
O=c1ccc(-c2ccc(N[C@H]3C[C@@H]4CN(CC5CCOCC5)C[C@@H]4C3)nn2)cn1CC1CC1 [A15, 1-(cyclopropylmethyl)-5-(6-(((3aR,5s,6aS)-2-((tetrahydro-2H-pyran-4-yl)methyl)octahydrocyclopenta[c]pyrrol-5-yl)amino)pyridazin-3-yl)pyridin-2(1H)-one] | 0.0196 | 4
Cc1cc(-c2ccc(N[C@H]3C[C@@H]4CN(CC5CCOCC5)C[C@@H]4C3)nn2)cn(C)c1=O [A16, 1,3-dimethyl-5-(6-(((3aR,5s,6aS)-2-((tetrahydro-2H-pyran-4-yl)methyl)octahydrocyclopenta[c]pyrrol-5-yl)amino)pyridazin-3-yl)pyridin-2(1H)-one] | 0.0019 | 4
Cn1cc(-c2ccc(N[C@H]3C[C@@H]4CN(CC5CCOCC5)C[C@@H]4C3)nn2)cc(F)c1=O [A17, 3-fluoro-1-methyl-5-(6-(((3aR,5s,6aS)-2-((tetrahydro-2H-pyran-4-yl)methyl)octahydrocyclopenta[c]pyrrol-5-yl)amino)pyridazin-3-yl)pyridin-2(1H)-one] | 0.013 | 3
